According to ChEMBL document CHEMBL1201862, “PubChem BioAssay data set” (2004):
Activity calls are given as the source filed them.

How the values were obtained:
[1] = target: Hepatocyte nuclear factor 4-alpha (Homo sapiens, UniProt P41235); assay type: functional, cell-based;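 note: biochemical luminescence-based dose-response counterscreen measuring inhibition of HNF4 dimerization, run alongside a screen for blockers of ABHD5–perilipin-5 interaction; split luciferase complementation of HNF4 fusion proteins in cell lysate measuring dimerization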
[2] = target: DNA repair and recombination protein RAD54-like (Homo sapiens, UniProt Q92698); experiment: RAD54 Holliday junction migration blockers – biochemical, fluorescence, cherry-picked samples, dose series, confirmation (AID 651657); assay type: functional
[3] = Trypanosoma cruzi growth suppression in host cells – NIH3T3 host cells, beta-gal luminescence, confirmation (AID 2044); assay type: functional, cell-based;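 note: intracellular parasites grown in NIH/3T3 mouse fibroblasts as host cells; luminescent beta-galactosidase reporter signal from transgenic T. cruzi replicating inside host cells; inhibitors lower the luminescence signal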
[4] = NIH3T3 cell viability loss – ATP luminescence, mouse fibroblasts, counter-screen, dose response (AID 2010); assay type: functional, cell-based;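 note: cells exposed to compound for about 90 hours before reading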
[5] = target: T1, Protein skinhead-1 (Caenorhabditis elegans, UniProt P34707); assay type: functional
T1 sequence (P34707 whole entry): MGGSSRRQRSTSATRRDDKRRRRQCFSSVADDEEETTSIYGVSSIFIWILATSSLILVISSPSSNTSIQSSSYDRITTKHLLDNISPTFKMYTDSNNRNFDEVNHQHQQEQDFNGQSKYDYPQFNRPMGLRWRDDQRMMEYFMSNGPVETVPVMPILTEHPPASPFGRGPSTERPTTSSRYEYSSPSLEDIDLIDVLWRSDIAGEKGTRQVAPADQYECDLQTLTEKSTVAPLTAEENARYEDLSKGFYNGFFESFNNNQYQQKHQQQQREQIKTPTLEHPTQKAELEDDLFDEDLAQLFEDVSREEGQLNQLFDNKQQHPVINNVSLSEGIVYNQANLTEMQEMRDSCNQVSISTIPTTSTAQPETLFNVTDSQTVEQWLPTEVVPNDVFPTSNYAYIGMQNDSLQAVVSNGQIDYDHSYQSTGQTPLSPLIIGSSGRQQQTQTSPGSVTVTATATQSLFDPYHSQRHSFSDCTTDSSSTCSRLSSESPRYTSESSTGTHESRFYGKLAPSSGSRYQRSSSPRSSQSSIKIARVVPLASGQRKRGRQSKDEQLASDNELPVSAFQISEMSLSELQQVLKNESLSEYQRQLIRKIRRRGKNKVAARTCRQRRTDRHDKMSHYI

[6] = target: FAD-linked sulfhydryl oxidase ALR (Homo sapiens, UniProt P55789); experiment: ALR-catalysed DTT oxidation blockers – biochemical, H2O2 detection, luminescence, cherry-pick, dose response (AID 493248)
[7] = target: T2, DNA repair protein RAD52 homolog (Homo sapiens, UniProt P43351); assay type: functional, biochemical
T2 sequence (P43351 whole entry): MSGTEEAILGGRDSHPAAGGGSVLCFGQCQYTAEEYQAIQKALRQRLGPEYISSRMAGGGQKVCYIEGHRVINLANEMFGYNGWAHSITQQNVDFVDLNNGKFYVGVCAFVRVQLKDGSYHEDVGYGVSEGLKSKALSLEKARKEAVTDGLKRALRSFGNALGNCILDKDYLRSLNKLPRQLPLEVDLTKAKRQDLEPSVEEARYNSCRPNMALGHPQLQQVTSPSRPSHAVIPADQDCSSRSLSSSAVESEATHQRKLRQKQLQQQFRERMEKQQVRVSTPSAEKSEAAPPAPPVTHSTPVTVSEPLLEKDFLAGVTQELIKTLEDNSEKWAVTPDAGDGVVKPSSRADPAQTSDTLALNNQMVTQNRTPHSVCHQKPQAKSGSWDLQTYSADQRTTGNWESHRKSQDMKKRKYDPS

[8] = target: Heat shock protein HSP 90-alpha (Homo sapiens, UniProt P07900); assay type: functional, organism-based
[9] = system: H9c2; experiment: cells; assay type: functional, cell-based; conditions: Rattus norvegicus, H9c2, Myocardium;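 note: confirmatory concentration-response retest of ultra-high-throughput screening hits for modulation of myocardial damage; cell death induced by hydrogen peroxide oxidative stress; compound pretreatment for 60 min then peroxide exposure for 2 h; potency is for protecting the cells against peroxide damage rather than for killing them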
[10] = target: T3, Interleukin-8 (Homo sapiens, UniProt P10145); experiment: Dose Response confirmation of uHTS small molecule hits for cystic fibrosis induced NFkb Inhibitors in a PAF-induced IL8 counterscreen.; assay type: functional; conditions: read-out: IC50_Mean
T3 sequence (P10145 whole entry): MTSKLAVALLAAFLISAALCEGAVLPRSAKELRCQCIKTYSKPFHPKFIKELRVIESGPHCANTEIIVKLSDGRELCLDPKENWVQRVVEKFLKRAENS

[11] = viability of PTEN-deleted HCT116 cells – cell-based, HCT116 PTEN knockout, dose response (AID 1047); assay type: functional;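 note: HCT116 colon tumor cells with PTEN knocked out; cells exposed to compound for 60 hours before readout; potency for loss of cell viability measured by luminescence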
[12] = viability of HCT116 lacking mutant beta-catenin – cell-based, human colon tumor, dose response (AID 1045); assay type: functional;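 note: HCT116 colon tumor cells with beta catenin knocked out; cells exposed to compound for 60 hours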
[13] = target: T3, Interleukin-8; experiment: Dose Response confirmation of uHTS small molecule hits for cystic fibrosis induced NFkb Inhibitors in a TNFa-induced IL8 counterscreen.; assay type: functional; conditions: read-out: IC50_Mean
[14] = target: Melanocortin receptor 4 (Homo sapiens, UniProt P32245); assay type: functional, cell-based;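 note: Cell-based assay with luminescence read-out, confirmatory dose-response testing for agonist activity of biased ligands at MC4R; human U2OS cells with tagged receptor and beta-arrestin; potency of agonists that increase receptor coupling to beta-arrestin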
[15] = activation of miR-122 Renilla sensor silencing – cell-based, Huh7 psiCHECK-miR122, Renilla luciferase, cherry-picked, dose response (AID 651956); assay type: functional;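 note: huh7 hepatoma cells stably carrying a psiCHECK-2 miR-122 sensor plasmid; renilla luciferase signal reporting endogenous miR-122 activity after 48 h compound exposure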
[16] = target: Large T antigen (Simian virus 40, UniProt P03070); assay type: functional, Betapolyomavirus macacae;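 note: Confirmatory-stage PubChem screen for compounds that inhibit SV40 T antigen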
[17] = target: Photoreceptor-specific nuclear receptor (Homo sapiens, UniProt Q9Y5X4); assay type: functional, cell-based;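 note: CHO-S cells with Gal4-NCOR and VP16-NR2E3 two-hybrid luciferase reporter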
[18] = target: T4, Sentrin-specific protease 1 (Homo sapiens, UniProt Q9P0U3); experiment: SENP1 catalytic domain blockers, concentration series – biochemical, kinetic FRET, dose response (AID 651697); assay type: functional; conditions: read-out: IC50_Mean
T4 sequence (Q9P0U3 whole entry): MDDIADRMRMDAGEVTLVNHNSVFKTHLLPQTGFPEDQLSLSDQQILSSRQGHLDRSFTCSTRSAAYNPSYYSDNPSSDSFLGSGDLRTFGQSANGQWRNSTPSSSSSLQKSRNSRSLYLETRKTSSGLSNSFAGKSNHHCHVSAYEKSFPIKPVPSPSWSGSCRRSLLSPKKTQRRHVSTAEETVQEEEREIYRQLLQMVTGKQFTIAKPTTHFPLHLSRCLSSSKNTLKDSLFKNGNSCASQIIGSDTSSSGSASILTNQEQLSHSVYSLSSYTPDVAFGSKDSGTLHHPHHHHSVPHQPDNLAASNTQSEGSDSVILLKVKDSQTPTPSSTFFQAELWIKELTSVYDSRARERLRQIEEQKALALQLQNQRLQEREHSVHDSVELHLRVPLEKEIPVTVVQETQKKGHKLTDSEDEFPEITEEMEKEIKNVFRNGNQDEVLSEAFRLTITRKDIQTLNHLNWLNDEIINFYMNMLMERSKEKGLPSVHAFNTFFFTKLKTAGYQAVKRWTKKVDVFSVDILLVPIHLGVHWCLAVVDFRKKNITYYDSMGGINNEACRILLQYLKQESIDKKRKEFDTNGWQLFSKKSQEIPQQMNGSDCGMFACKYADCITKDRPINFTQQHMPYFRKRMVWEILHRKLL

[19] = target: T4, Sentrin-specific protease 1; experiment: Dose response confirmation of small molecule inhibitors of the catalytic domain of the SUMO protease, SENP1 in a FRET assay.; assay type: functional; conditions: read-out: IC50_Mean
[20] = target: Ras and Rab interactor 1/Tyrosine-protein kinase ABL1 (Homo sapiens, UniProt P00519+Q13671); assay type: functional;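 note: biochemical TR-FRET dose-response test measuring inhibition of binding between Rin1 and Abl proteins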
[21] = mitochondrial function rescue without frataxin homolog – Friedreich's ataxia, plus single-dose screen, dose response (AID 1465); assay type: functional;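 note: yeast depleted of Yfh1p frataxin homolog grown on glycerol needing respiration; WST-1 tetrazolium dye reduction as measure of cellular dehydrogenase metabolic activity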
[22] = target: T5, High affinity choline transporter 1 (Homo sapiens, UniProt Q9GZV3); experiment: human choline transporter blockers, potency – cell-based, 10-point CRC, membrane potential dye, dose response (AID 588401); assay type: functional;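 note: membrane potential dye fluorescence of choline-evoked depolarization via CHT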
T5 sequence (Q9GZV3 whole entry): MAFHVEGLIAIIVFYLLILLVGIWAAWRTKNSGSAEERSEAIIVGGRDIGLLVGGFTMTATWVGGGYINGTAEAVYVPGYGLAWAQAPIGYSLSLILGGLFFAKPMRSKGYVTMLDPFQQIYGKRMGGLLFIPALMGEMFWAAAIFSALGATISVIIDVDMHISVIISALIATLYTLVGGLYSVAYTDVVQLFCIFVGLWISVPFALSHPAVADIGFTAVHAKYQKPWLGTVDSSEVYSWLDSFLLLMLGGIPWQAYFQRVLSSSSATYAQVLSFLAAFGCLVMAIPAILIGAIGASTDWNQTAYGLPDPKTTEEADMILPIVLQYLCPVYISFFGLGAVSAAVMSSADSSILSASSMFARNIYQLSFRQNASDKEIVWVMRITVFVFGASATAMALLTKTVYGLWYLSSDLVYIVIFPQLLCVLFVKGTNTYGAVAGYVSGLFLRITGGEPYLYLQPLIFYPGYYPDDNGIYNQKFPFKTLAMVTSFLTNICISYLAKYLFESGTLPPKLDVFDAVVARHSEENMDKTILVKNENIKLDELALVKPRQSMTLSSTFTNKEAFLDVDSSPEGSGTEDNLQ

[23] = target: T5, High affinity choline transporter 1; experiment: human choline transporter blockers, potency – cell-based, 5-point CRC, membrane potential dye, dose response (AID 504840); assay type: functional
[24] = bead-based luminescence quenchers, dual-tagged ARNT – biochemical, AlphaScreen, cherry-pick, artefact control for ARNT-TACC3 interaction inhibitor project, dose response (AID 651705); assay type: functional;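 note: AlphaScreen bead proximity signal that flags compounds interfering with the detection technology; potency reflects signal decrease which marks the compound as an assay artifact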
[25] = target: Beta Lactamase (Pseudomonas aeruginosa, UniProt Q932Y6); experiment: BLA reporter interference, concentration series – BLA reporter cells, FRET fluorescence, artefact control for NOD2-RIPK2 interaction inhibitor project, dose response (AID 651552); assay type: functional, cell-based
[26] = Fluorescence-based cell-based high throughput dose response assay for inhibitors of the interaction of nucleotide-binding oligomerization domain containing 2 (NOD2) and the receptor-interacting serine-threonine kinase 2 (RIPK2).; assay type: functional; conditions: Homo sapiens

Sequence of Hepatocyte nuclear factor 4-alpha (P41235 whole entry, the tested form may be a part): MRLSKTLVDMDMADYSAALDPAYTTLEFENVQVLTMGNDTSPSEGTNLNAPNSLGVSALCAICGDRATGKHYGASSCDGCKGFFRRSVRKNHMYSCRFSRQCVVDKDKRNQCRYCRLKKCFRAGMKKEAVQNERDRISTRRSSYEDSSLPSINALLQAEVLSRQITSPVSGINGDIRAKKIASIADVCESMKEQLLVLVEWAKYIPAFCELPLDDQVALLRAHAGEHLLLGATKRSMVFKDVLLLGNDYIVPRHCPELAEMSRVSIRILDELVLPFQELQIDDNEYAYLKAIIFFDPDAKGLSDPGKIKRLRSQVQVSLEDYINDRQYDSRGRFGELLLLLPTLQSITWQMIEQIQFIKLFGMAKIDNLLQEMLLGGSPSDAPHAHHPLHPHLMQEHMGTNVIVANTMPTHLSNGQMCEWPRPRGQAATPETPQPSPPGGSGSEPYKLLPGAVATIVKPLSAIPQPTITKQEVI
Sequence of FAD-linked sulfhydryl oxidase ALR (P55789 whole entry): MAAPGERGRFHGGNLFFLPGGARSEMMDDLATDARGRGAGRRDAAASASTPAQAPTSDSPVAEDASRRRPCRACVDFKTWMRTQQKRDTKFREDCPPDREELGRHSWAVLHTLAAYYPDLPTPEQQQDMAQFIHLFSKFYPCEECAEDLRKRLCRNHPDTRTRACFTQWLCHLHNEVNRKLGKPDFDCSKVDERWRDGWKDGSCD
Sequence of DNA repair and recombination protein RAD54-like (Q92698 whole entry): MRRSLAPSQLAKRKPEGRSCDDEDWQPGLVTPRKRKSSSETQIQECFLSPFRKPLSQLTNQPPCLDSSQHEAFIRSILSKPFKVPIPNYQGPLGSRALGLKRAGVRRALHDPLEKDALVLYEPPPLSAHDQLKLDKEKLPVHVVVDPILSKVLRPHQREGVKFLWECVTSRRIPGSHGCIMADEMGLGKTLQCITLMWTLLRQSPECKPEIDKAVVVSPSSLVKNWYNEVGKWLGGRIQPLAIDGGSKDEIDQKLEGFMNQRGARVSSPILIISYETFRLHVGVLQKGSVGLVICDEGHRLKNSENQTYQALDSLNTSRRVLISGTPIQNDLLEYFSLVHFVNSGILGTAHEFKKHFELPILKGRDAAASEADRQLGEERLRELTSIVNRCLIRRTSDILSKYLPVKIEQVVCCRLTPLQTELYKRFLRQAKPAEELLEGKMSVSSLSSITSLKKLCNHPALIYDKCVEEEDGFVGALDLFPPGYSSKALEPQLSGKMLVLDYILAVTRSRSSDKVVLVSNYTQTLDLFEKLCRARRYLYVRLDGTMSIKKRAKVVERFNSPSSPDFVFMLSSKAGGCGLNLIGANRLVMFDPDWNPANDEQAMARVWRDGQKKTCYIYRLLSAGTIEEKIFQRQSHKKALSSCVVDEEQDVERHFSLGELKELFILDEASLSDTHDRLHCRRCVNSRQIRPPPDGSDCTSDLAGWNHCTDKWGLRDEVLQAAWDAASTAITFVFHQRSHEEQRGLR
Sequence of Large T antigen (P03070 whole entry, the tested form may be a part): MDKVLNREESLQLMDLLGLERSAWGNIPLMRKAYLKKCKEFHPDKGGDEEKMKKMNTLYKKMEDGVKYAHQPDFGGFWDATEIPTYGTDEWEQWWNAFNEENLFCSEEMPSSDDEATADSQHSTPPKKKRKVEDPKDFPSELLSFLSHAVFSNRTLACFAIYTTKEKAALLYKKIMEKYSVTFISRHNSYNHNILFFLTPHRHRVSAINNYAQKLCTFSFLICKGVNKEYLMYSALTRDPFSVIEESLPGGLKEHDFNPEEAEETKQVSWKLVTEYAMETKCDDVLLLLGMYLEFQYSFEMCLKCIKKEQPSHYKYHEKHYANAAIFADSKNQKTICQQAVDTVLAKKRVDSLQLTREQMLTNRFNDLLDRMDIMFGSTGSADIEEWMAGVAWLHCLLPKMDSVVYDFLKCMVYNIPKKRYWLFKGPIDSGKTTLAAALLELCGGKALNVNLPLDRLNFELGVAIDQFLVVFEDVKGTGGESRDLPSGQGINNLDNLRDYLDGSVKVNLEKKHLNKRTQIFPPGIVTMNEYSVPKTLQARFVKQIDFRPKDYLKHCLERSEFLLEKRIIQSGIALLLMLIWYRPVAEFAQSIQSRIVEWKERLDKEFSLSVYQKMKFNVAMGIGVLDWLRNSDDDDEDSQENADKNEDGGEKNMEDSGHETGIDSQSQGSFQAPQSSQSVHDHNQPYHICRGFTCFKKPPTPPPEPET
Sequence of Photoreceptor-specific nuclear receptor (Q9Y5X4 whole entry, the tested form may be a part): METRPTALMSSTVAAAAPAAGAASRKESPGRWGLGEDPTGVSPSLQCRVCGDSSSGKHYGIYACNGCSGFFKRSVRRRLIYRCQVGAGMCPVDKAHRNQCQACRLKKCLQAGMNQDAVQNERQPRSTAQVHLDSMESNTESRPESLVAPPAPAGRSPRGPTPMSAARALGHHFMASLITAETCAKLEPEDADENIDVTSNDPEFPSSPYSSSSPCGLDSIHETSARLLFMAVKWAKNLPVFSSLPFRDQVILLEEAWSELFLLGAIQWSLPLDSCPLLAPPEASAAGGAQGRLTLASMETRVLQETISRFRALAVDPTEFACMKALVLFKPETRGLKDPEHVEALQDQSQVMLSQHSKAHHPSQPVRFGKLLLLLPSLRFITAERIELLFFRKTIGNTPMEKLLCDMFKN
Sequence of Beta Lactamase (Q932Y6 whole entry, the tested form may be a part): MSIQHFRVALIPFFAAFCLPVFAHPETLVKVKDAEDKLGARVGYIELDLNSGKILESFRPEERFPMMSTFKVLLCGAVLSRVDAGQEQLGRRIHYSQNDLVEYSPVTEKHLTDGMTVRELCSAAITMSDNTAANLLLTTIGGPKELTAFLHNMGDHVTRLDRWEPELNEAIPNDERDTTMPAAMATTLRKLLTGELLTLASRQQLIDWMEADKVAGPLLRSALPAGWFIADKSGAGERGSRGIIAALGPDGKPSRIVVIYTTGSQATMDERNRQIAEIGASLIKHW
Sequence of Melanocortin receptor 4 (P32245 whole entry): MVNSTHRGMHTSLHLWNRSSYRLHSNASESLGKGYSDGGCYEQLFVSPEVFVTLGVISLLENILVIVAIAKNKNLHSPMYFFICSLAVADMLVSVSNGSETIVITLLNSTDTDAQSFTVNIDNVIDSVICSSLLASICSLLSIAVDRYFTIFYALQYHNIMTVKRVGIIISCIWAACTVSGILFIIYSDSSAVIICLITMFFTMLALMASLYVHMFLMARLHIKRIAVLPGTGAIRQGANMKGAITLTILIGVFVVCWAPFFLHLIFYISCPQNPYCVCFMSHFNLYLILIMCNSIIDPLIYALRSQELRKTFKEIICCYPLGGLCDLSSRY

Q: With O=C(/C=C/c1ccc2c(c1)OCCCO2)c1ccccc1O as the molecule, how does the IC50 [1] read?
A: Its IC50 is 5.6 µM (active).

Q: What does the source list for Oc1cccc(Nc2c3ccccc3nc3ccccc23)c1?
A: AC50 [2]: 4.49 µM (active); EC50 [3]: 0.672 µM (active); EC50 [4]: 21.8 µM (active); IC50 [5]: > 100 µM (inactive); AC50 [6]: 2.66 µM (active); AC50 [7]: 3.09 µM (active)

Q: What does the source list for CCOc1ccc(NCc2cc3c(C(C)(C)C)nn(-c4ccccc4)c3nc2O)cc1?
A: AC50 [8]: 8.84 µM (active); IC50 [9]: 24.2 µM (active); IC50 [10]: 0.628 µM (active); EC50 [11]: 9.36 µM (active); EC50 [12]: 13.5 µM (active); IC50 [13]: > 79 µM (inactive)

Q: What does the source list for Cc1ccc(O)c(C(=O)/C=C/c2ccc3c(c2)OCCCO3)c1?
A: EC50 [14]: > 89.2 µM (inactive); IC50 [1]: 6.11 µM (active)

Q: With Cc1ccc(-n2ncc(C(=O)Nc3cc(Cl)ccc3C)c2C2CCNCC2)cc1C as the molecule, how does the AC50 [15] read?
A: The AC50 was 51.5 µM (active).

Q: For Cc1ccc(S(=O)(=O)N2[C@@H](c3ccc(Cl)cc3)C(C(=O)O)=CC[C@H]2c2ccc(C(C)C)cc2)cc1, which IC50 [16] is on record?
A: Its IC50 is 60.4 µM (active).

Q: What about the IC50 [17] of the same molecule?
A: The IC50 was 5.56 µM (active).

Q: And the AC50 [6]?
A: Its AC50 is 10.3 µM (active).

Q: Which results are given for O=C(O)CN1C(=O)S/C(=C2/C(=O)Nc3ccccc32)C1=O?
A: IC50 [18]: 13.7 µM (active); IC50 [19]: 3.7 µM (active)

Q: What does the source list for COc1ncccc1-c1cc2nc(NCCCN(C)C)n(C)c(=O)c2s1?
A: AC50 [2]: 12.9 µM (active); AC50 [7]: 4.91 µM (active)

Q: With Oc1nccc(N/N=C/c2ccccc2)n1 as the molecule, how does the IC50 [20] read?
A: Its IC50 is > 73.5 µM (inactive).

Q: What does the source list for Sc1nnc(-c2ccncc2)n1/N=C/C(Cl)=C\c1ccccc1?
A: IC50 [10]: 3.4 µM (active); EC50 [21]: > 100 µM (active); IC50 [13]: > 79 µM (inactive)

Q: What does the source list for C[N+]1(C)CCOC(O)(c2ccc(-c3ccc(C4(O)C[N+](C)(C)CCO4)cc3)cc2)C1 (stereo not drawn)?
A: IC50 [22]: 0.127 µM (active); IC50 [23]: 0.296 µM (active); AC50 [7]: 7.78 µM (active)

Q: Which EC50 [11] does the source give for O=C(COc1nsnc1N1CCOCC1)N/N=C/c1ccccc1O here?
A: Its EC50 is 28.5 µM (active).

Q: And the AC50 [24]?
A: The AC50 was 107 µM (active).

Q: What about the EC50 [12] of the same molecule?
A: The EC50 was 23.7 µM (active).

Q: With COc1cccc(-c2nc(SC)nc3sc(C(=O)NC(C)(C)C)c(N)c23)c1 as the molecule, how does the IC50 [18] read?
A: The IC50 was 19.1 µM (active).

Q: And the IC50 [19]?
A: The IC50 was 15.2 µM (active).

Q: Which AC50 [15] does the source give for C[C@@H]1CN([C@H](C)CO)S(=O)(=O)c2ccc(C3=CCCC3)cc2O[C@@H]1CN(C)C(=O)c1cnccn1 here?
A: Its AC50 is 13.5 µM (active).

Q: With CCCCCN1C(=O)c2cc(OC)ccc2[C@@]2(C(=O)OCC)Cc3cc(Cl)ccc3[C@@H]12 as the molecule, how does the IC50 [25] read?
A: Its IC50 is 18.8 µM (inactive).

Q: What about the IC50 [26] of the same molecule?
A: Its IC50 is 2.04 µM (active).
